In experiment [1] the target is T1, Thyroid hormone receptor alpha (Homo sapiens, UniProt P10827).
T1 sequence (P10827 whole entry): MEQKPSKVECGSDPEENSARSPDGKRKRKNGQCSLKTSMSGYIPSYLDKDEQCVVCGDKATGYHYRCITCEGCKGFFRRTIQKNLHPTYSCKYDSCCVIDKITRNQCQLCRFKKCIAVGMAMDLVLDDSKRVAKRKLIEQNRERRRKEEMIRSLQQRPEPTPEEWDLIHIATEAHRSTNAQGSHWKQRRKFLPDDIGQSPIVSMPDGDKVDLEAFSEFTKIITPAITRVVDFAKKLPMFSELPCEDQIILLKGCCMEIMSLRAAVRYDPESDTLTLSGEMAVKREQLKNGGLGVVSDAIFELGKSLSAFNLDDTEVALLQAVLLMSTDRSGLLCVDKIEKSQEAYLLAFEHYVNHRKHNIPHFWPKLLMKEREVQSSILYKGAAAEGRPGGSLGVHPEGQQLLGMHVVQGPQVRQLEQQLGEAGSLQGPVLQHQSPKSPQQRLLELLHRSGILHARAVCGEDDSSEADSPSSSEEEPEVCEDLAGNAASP
The experiment in a line: Binding affinity to TRalpha1.

Experiment [2] addresses T2, Thyroid hormone receptor beta (Homo sapiens, UniProt P10828).
T2 sequence (P10828 whole entry): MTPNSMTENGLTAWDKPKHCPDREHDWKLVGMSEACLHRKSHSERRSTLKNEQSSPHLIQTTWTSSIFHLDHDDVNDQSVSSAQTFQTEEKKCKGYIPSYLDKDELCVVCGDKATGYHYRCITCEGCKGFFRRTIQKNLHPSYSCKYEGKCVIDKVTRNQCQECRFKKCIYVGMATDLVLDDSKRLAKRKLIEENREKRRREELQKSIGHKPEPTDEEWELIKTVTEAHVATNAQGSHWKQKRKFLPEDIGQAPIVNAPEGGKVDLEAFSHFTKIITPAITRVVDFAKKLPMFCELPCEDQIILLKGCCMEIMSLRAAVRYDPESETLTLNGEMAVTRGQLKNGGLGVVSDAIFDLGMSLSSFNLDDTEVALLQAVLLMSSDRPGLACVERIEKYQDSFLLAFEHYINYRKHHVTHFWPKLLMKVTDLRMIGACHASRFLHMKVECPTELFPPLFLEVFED
The experiment is described as follows: Binding affinity to TRbeta1.

The test system of experiment [3] is Homo sapiens. The experiment in a line: Antidyslipidemic activity in human assessed as reduction in LDL cholesterol at 100 ug administered QD relative to control. The experiment is classed as functional. Details: scale not given: the % may be the effect or the level left.
In the next experiment the test system is Rattus norvegicus. The experiment in a line: Antidyslipidemic activity in po dosed cholesterol fed rat assessed as reduction in cholesterol level administered QD. The experiment is classed as functional.
Experiment [4] has as its system Homo sapiens. The experiment is described as follows: Antidyslipidemic activity in obese, hypercholesterolemic patient assessed as reduction in LDL cholesterol at 100 ug administered QD for 2 weeks relative to control. The format is functional. Also noted: scale not given: the % may be the effect or the level left.

One may read the EC50 as the concentration at which the effect is half-maximal. Take `O=C(O)Cc1cc(Cl)c(Oc2ccc(O)c(-c3ccccc3)c2)c(Cl)c1`: the EC50 is 152 nM in experiment [1] and 2.9 nM in experiment [2].

Consider `Cc1cc(OCC(=O)O)cc(C)c1Cc1ccc(O)c(C(C)C)c1` [SOBETIROME], for which, in the experiment on Homo sapiens [3], the Activity is reported as 41%.

The ED50 is the midpoint of the dose-response relation. As usually defined, the Ki is the equilibrium dissociation constant of an inhibitor or competing ligand from its target. With `Cc1cc(OCP2(=O)OCC[C@@H](c3cccc(Cl)c3)O2)cc(C)c1Cc1ccc(O)c(C(C)C)c1` (stereo partly drawn) [MB07811], the ED50 with Rattus norvegicus came to 0.4 mg/kg. For the same molecule, the Ki in experiment [2] was found to be 600 nM.

Consider `O=C(O)Cc1cc(Cl)c(Oc2ccc(O)c(C(=O)NCC(c3ccccc3)c3ccccc3)c2)c(Cl)c1`, for which the EC50 was 18 nM in experiment [1] and 0.47 nM in experiment [2].

`CC(C)c1cc(Oc2c(Br)cc(NC(=O)CC(=O)O)cc2Br)ccc1O` [EPROTIROME]: in the experiment with Homo sapiens [4], the Activity came out at 40%.
